IC50 and Ki data for 18 compounds are collected here from US8609852B2, “Thiazolyl mGluR5 antagonists and methods for their use” (Merck Sharp & Dohme Corp., priority 2004, dated 2013).

One test deals with hmGluR5a receptor (Homo sapiens (Human), UniProt P41594). Description: Calcium Flux Assay. Format: cell-based. Conditions: hmGluR5a/L38-20 cells, glutamate-evoked [Ca2+]i. The protocol: The activity of compounds was examined against the hmGluR5a receptor stably expressed in mouse fibroblast Ltk− cells (the hmGluR5a/L38-20 cell line). See generally Daggett et al., Neuropharmacology 34:871-886 (1995). Receptor activity was detected by changes in intracellular calcium ([Ca^2+]i) measured using the fluorescent calcium-sensitive dye, fura-2. hmGluR5a/L38-20 cells were plated onto 96-well plates, and loaded with 3 µM fura-2 for 1 h. Unincorporated dye was washed from the cells, and the cell plate was transferred to a custom-built 96-channel fluorimeter (SIBIA-SAIC, La Jolla, Calif.) which is integrated into a fully automated plate handling and liquid delivery system. Cells were excited at 350 and 385 nm with a xenon source combined with optical filters. Emitted light was collected from the sample through a dichroic mirror and a 510 nm interference filter and directed into a cooled CCD camera (Princeton Instruments). Image pairs were captured approximately every 1 s, and ratio images were generated after background subtraction. After a basal reading of 20 s, an EC80 concentration of glutamate ([…]) was added to the well, and the response evaluated for another 60 s. The glutamate-evoked increase in [Ca^2+]i in the presence of the screening compound was compared to the response of glutamate alone (the positive control).
Sequence of hmGluR5a receptor (P41594 other isoform, or with tags, fused parts or gaps): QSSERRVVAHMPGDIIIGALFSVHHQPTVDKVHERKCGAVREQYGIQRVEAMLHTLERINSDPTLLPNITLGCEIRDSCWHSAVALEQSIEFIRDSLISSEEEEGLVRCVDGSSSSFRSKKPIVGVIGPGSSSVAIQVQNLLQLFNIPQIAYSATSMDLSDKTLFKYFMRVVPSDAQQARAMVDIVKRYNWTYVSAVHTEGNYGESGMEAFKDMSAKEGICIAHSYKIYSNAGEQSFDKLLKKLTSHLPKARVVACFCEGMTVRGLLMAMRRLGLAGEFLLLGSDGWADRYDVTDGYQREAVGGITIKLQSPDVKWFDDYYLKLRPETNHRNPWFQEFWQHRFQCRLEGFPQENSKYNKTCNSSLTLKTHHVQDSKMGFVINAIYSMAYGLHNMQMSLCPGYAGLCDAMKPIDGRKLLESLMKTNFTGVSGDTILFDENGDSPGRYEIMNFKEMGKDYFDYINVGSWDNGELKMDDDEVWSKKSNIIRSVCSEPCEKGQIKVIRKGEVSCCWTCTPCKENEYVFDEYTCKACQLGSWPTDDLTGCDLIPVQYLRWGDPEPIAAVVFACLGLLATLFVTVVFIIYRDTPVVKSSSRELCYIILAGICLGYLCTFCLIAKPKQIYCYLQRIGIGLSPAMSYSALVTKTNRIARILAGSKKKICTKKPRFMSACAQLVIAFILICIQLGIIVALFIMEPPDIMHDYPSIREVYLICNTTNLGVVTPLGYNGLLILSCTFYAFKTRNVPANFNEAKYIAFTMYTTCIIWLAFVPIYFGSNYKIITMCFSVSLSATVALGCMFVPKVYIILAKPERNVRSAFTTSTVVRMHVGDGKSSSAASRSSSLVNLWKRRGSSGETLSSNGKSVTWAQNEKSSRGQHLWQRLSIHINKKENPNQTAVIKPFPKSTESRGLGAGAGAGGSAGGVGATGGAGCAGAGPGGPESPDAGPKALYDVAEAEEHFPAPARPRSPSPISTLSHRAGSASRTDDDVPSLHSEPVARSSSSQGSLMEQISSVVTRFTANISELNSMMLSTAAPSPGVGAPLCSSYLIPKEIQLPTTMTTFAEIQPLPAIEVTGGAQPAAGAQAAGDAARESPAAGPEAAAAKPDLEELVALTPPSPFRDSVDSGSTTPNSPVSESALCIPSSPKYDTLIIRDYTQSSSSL

In test [1] the target is metabotropic glutamate receptor subtype 5 (Rattus norvegicus (Rat), UniProt P31424). Description: [3H]-mGluR5 Antagonist Binding to Rodent Brain Membranes. The protocol:
In accordance with Anderson J J, Rao S P, Rowe B, Giracello D R, Holtz G, Chapman D F, Tehrani L, Bradbury M J, Cosford N D, Varney M A, [^3H]Methoxymethyl-3-[(2-methyl-1,3-thiazol-4-yl)ethynyl]pyridine binding to metabotropic glutamate receptor subtype 5 in rodent brain: in vitro and in vivo characterization. J Pharmacol Exp Ther. 2002 December; 303 (3):1044-51, membranes were prepared (as described in Ransom R W and Stec N L (1988) Cooperative modulation of [^3H]MK-801 binding to the N-methyl-D-aspartate receptor-ion channel complex by L-glutamate, glycine, and polyamines. J Neurochem 51:830-836) using whole rat brain, or mGlu5^+/+ or mGlu5^−/− whole mouse brain.
Binding assays were performed as described in Schaffhauser H, Richards J G, Cartmell J, Chaboz S, Kemp J A, Klingelschmidt A, Messer J, Stadler H, Woltering T and Mutel V (1998) In vitro binding characteristics of a new selective group II metabotropic glutamate receptor radioligand, [^3H]LY354740, in rat brain. Mol Pharmacol 53:228-233) at room temperature with slight modifications. Briefly, membranes were thawed and washed once with assay buffer (50 mM HEPES, 2 mM MgCl2, pH 7.4), followed by centrifugation at 40,000×g for 20 min. The pellet was resuspended in assay buffer and briefly homogenized with a Polytron.
For protein linearity experiments, increasing concentrations of membrane protein were added to 96-well plates in triplicate and binding was initiated by addition of 20 nM [^3H]methoxymethyl-3-[(2-methyl-1,3-thiazol-4-yl)ethynyl]pyridine. The assay was incubated for 2 h and non-specific binding was determined using 10 μM MPEP. The binding was terminated by rapid filtration through glass-fiber filters (Unifilter-96 GF/B plate, Packard) using a 96-well plate Brandel cell harvester. Following addition of scintillant, the radioactivity was determined by liquid scintillation spectrometry. Protein measurements were performed by BioRad-DC Protein assay using bovine serum albumin as the standard.
Saturation binding experiments were performed in triplicate with increasing concentrations of [^3H]methoxymethyl-3-[(2-methyl-1,3-thiazol-4-yl)ethynyl]pyridine (1 pM to 100 nM). The time course of association was measured by the addition of 10 nM [^3H]methoxymethyl-3-[(2-methyl-1,3-thiazol-4-yl)ethynyl]pyridine to the membranes at different time points (0-240 min), followed by filtration. Dissociation was measured by the addition of 100 μM unlabeled methoxymethyl-3-[(2-methyl-1,3-thiazol-4-yl)ethynyl]pyridine at different time points to membranes previously incubated for 3 h with 10 nM [^3H]methoxymethyl-3-[(2-methyl-1,3-thiazol-4-yl)ethynyl]pyridine. For competition experiments, 100 μg membrane protein and 10 nM [^3H]methoxymethyl-3-[(2-methyl-1,3-thiazol-4-yl)ethynyl]pyridine was added to wells containing increasing concentration of the test compound in duplicate (methoxymethyl-3-[(2-methyl-1,3-thiazol-4-yl)ethynyl]pyridine or MPEP). [^3H]-3-Methoxy-5-(pyridin-2-ylethynyl)pyridine may also be used as the radioligand in the procedure described above. (See, Cosford, N. D. P.; Roppe, J.; Tehrani, L.; Seiders, T. J.; Schweiger, E. J. et al. [3H]-Methoxymethyl-MTEP and [3H]-methoxy-PEPy): Potent and selective radioligands for the Metabotropic Glutamate Subtype 5 (mGlu5) Receptor. Bioorg. Med. Chem. Lett. 2003, 13, 351-354.)

Counter-ions that a name gives are not always drawn.

Sequence of metabotropic glutamate receptor subtype 5 (P31424 21-1203): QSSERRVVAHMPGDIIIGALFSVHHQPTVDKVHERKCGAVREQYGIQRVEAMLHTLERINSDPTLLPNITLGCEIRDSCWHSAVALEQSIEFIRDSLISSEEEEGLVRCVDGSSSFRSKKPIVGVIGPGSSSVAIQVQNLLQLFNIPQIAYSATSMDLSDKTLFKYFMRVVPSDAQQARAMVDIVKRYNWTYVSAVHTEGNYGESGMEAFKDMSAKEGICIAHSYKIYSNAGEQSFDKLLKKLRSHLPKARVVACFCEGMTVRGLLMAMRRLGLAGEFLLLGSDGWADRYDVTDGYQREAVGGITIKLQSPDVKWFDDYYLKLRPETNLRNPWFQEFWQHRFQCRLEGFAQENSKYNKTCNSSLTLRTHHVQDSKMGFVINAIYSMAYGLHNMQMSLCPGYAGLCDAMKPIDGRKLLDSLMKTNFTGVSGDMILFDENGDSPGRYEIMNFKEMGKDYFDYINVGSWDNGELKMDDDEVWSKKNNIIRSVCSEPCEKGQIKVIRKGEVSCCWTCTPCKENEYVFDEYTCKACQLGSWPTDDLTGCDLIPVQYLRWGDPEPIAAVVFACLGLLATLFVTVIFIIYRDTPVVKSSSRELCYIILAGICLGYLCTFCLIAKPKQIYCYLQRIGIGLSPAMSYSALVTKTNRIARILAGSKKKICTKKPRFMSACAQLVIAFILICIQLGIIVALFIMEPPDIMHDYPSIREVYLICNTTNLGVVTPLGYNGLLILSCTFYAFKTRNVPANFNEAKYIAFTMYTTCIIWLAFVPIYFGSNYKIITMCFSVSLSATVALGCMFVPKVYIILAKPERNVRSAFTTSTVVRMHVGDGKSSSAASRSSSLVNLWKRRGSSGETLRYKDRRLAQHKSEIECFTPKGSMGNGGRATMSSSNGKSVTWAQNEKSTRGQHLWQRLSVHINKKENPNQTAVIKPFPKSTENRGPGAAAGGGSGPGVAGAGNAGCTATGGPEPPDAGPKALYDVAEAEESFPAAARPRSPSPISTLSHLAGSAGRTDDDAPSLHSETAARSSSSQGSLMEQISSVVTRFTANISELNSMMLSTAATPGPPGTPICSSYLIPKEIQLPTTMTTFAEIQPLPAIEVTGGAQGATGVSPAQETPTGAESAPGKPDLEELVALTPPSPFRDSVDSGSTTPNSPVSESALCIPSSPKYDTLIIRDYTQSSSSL

As for `Cc1nc(C#Cc2ccc(-n3ccc4cccnc43)nc2)cs1` [Example 17, 1-{5-[(2-methyl-1,3-thiazol-4-yl)ethynyl]pyridin-2-yl}-1H-pyrrolo[2,3-b]pyridine], the IC50 on hmGluR5a receptor is 0.4 nM. The compound also had a Ki in test [1] of 3.8 nM.

As for `Cc1nc(C#Cc2ccc(N3CCCCC3)nc2)cs1` [Example 19, 5-[(2-methyl-1,3-thiazol-4-yl)ethynyl]-2-piperidin-1-ylpyridine], the IC50 at hmGluR5a receptor came out at 1.8 nM. Moreover, the Ki in test [1] turned out to be 2.8 nM.

On to `Cc1nc(C#Cc2ccc(N3CCCC3C)nc2)cs1` (stereo not drawn) [Example 20, 2-(2-methylpyrrolidin-1-yl)-5-[(2-methyl-1,3-thiazol-4-yl)ethynyl]pyridine], for which, on hmGluR5a receptor, the IC50 worked out at 1 nM. The Ki in test [1] is 1.4 nM.

Consider `Cc1nc(C#Cc2cnc(N3CCCC3C)nc2)cs1` (stereo not drawn) [Example 21, 2-(2-methylpyrrolidin-1-yl)-5-[(2-methyl-1,3-thiazol-4-yl)ethynyl]pyrimidine], for which the IC50 at hmGluR5a receptor was determined as 1.5 nM. The Ki in test [1] turned out to be 1.5 nM.

As to `Cc1nc(C#Cc2cnc(NC(C)(C)C)nc2)cs1` [Example 22, N-(tert-butyl)-5-[(2-methyl-1,3-thiazol-4-yl)ethynyl]pyrimidin-2-amine], the IC50 on hmGluR5a receptor worked out at 1.2 nM. The same compound displayed a Ki in test [1] of 0.9 nM.

Regarding `Cc1nc(C#Cc2cnc(N3CCCCC3)nc2)cs1` [Example 24, 5-[(2-methyl-1,3-thiazol-4-yl)ethynyl]-2-piperidin-1-ylpyrimidine], on hmGluR5a receptor, the IC50 was 0.3 nM. In addition, in test [1], the Ki was 2.6 nM.

As for `Cc1nc(C#Cc2cnc(OC(C)C)nc2)cs1` [Example 25, 2-isopropoxy-5-[(2-methyl-1,3-thiazol-4-yl)ethynyl]pyrimidine], on hmGluR5a receptor, the IC50 amounted to 1.4 nM. This compound also registered a Ki in test [1] of 9 nM.

As for `Cc1nc(C#Cc2ccc(OC(C)C)nc2)cs1` [Example 26, 2-isopropoxy-5-[(2-methyl-1,3-thiazol-4-yl)ethynyl]pyridinium trifluoroacetate], the IC50 on hmGluR5a receptor amounted to 0.1 nM. The same compound yielded a Ki in test [1] of 2 nM.

For `Cc1nc(C#Cc2ccc(OC(C)(C)C)nc2)cs1` [Example 27, 2-tert-butoxy-5-[(2-methyl-1,3-thiazol-4-yl)ethynyl]pyridine], the IC50 on hmGluR5a receptor came to 1.4 nM. In test [1], this compound showed a Ki of 1 nM.

`Cc1nc(C#Cc2ccc(SC(C)(C)C)nc2)cs1` [Example 28, 2-(tert-butylthio)-5-[(2-methyl-1,3-thiazol-4-yl)ethynyl]pyridine]: on hmGluR5a receptor, the IC50 stood at 1.7 nM. The affinity in test [1], expressed as Ki, was 0.9 nM.

As to `Cc1nc(C#Cc2cnc(SC(C)(C)C)nc2)cs1` [Example 29, 2-(tert-butylthio)-5-[(2-methyl-1,3-thiazol-4-yl)ethynyl]pyrimidine], at hmGluR5a receptor, the IC50 was determined as 0.5 nM. Besides, in test [1], the Ki is 10 nM.

For the compound `Cc1nc(C#Cc2ccc(C3CCCCC3)nc2)cs1` [Example 30, 2-cyclohexyl-5-[(2-methyl-1,3-thiazol-4-yl)ethynyl]pyridine], the IC50 on hmGluR5a receptor came to 2.2 nM. The compound further registered a Ki in test [1] of 2.3 nM.

`Cc1nc(C#Cc2ccc(C(C)(C)C)nc2)cs1` [Example 31, 2-tert-butyl-5-[(2-methyl-1,3-thiazol-4-yl)ethynyl]pyridine]: on hmGluR5a receptor, the IC50 worked out at 2.9 nM. Also, in test [1], the Ki amounted to 12.2 nM.

Consider `Cc1nc(C#Cc2cnc(C3CCCCC3)nc2)cs1` [Example 32, 2-cyclohexyl-5-[(2-methyl-1,3-thiazol-4-yl)ethynyl]pyrimidine], for which the IC50 on hmGluR5a receptor is 1 nM. In test [1], affinity was put at a Ki of 4.8 nM.

With `Cc1nc(C#Cc2ccc(-c3ccc(F)cc3F)nc2)cs1` [Example 33], the IC50 at hmGluR5a receptor was found to be 19 nM. Besides, in test [1], the Ki turned out to be 7 nM.

For `Cc1cc(C#N)cc(-c2ccc(C#Cc3csc(C)n3)cn2)c1` [Example 34], the IC50 on hmGluR5a receptor turned out to be 18 nM. The compound also returned a Ki in test [1] of 15 nM.

On to `Cc1nc(C#Cc2ccc(-c3cccc4ncccc34)nc2)cs1` [Example 35], for which the IC50 on hmGluR5a receptor stood at 17 nM. The Ki in test [1] came to 5 nM.

In the case of `Cc1nc(C#Cc2ccc(-c3c(C)cccc3C)nc2)cs1` [Example 36], the IC50 on hmGluR5a receptor turned out to be 14 nM. The same compound yielded a Ki in test [1] of 3 nM.
